From the NIST ThermoML archive (doi:10.1021/je300652k)
± gives the expanded uncertainty stated by the source.

Details: Liquid, Pulse-echo method

FC(F)=C(F)C(F)(F)F [hexafluoropropene]
Details	speed of sound [m/s]
253.27 K, 1150 kPa	575.6 ± 1.8
253.27 K, 10940 kPa	645.3 ± 1.8
253.27 K, 25910 kPa	728.8 ± 1.7
253.27 K, 52820 kPa	844.3 ± 1.7
253.27 K, 75030 kPa	921.1 ± 1.7
253.27 K, 100630 kPa	997.3 ± 1.7
253.27 K, 125810 kPa	1063 ± 1.7
253.27 K, 151420 kPa	1123.6 ± 1.7
253.27 K, 174830 kPa	1174.3 ± 1.8
253.27 K, 200450 kPa	1224.7 ± 1.8
253.27 K, 250580 kPa	1315.5 ± 1.8
253.27 K, 299650 kPa	1393.8 ± 1.8
253.27 K, 350190 kPa	1468.5 ± 1.8
253.27 K, 400740 kPa	1535.4 ± 1.9
273.17 K, 1130 kPa	488.3 ± 1.8
273.17 K, 10400 kPa	567.9 ± 1.8
273.17 K, 25040 kPa	660.8 ± 1.7
273.17 K, 50150 kPa	779.5 ± 1.7
273.17 K, 75280 kPa	871.7 ± 1.7
273.17 K, 100230 kPa	949 ± 1.7
273.17 K, 125430 kPa	1017.1 ± 1.7
273.17 K, 150270 kPa	1077.5 ± 1.7
273.17 K, 175810 kPa	1133.8 ± 1.7
273.17 K, 200700 kPa	1184.6 ± 1.8
273.17 K, 250800 kPa	1276.7 ± 1.8
273.17 K, 300450 kPa	1358.2 ± 1.8
273.17 K, 350820 kPa	1432.3 ± 1.8
273.17 K, 400090 kPa	1499.6 ± 1.9
288.15 K, 1160 kPa	424.2 ± 2
288.15 K, 5200 kPa	468.9 ± 1.9
288.15 K, 10130 kPa	513.8 ± 1.8
288.15 K, 25190 kPa	618 ± 1.7
288.15 K, 50080 kPa	741.2 ± 1.7
288.15 K, 75440 kPa	837.6 ± 1.7
288.15 K, 100170 kPa	916.1 ± 1.7
288.15 K, 125510 kPa	986.4 ± 1.7
288.15 K, 150630 kPa	1048.4 ± 1.7
288.15 K, 175250 kPa	1103.9 ± 1.7
288.15 K, 200700 kPa	1156.6 ± 1.8
288.15 K, 250380 kPa	1249 ± 1.8
288.15 K, 300040 kPa	1331.1 ± 1.8
288.15 K, 350970 kPa	1407.7 ± 1.8
288.15 K, 400410 kPa	1475.2 ± 1.9
303.15 K, 1990 kPa	370.7 ± 2
303.15 K, 10090 kPa	463.9 ± 1.8
303.15 K, 25160 kPa	576.7 ± 1.7
303.15 K, 50920 kPa	709.3 ± 1.7
303.15 K, 75370 kPa	804.5 ± 1.7
303.15 K, 100560 kPa	886.5 ± 1.7
303.15 K, 125410 kPa	956.2 ± 1.7
303.15 K, 150900 kPa	1020.1 ± 1.7
303.15 K, 175340 kPa	1075.6 ± 1.7
303.15 K, 200830 kPa	1129 ± 1.8
303.15 K, 250190 kPa	1221.9 ± 1.8
303.15 K, 300750 kPa	1306.5 ± 1.8
303.15 K, 350300 kPa	1381.1 ± 1.8
303.15 K, 400020 kPa	1450.2 ± 1.9
323.18 K, 2300 kPa	288.3 ± 2.1
323.18 K, 10550 kPa	404.9 ± 1.9
323.18 K, 28790 kPa	547 ± 1.8
323.18 K, 50380 kPa	664.6 ± 1.7
323.18 K, 75340 kPa	767.2 ± 1.7
323.18 K, 101090 kPa	852.8 ± 1.7
323.18 K, 125070 kPa	921.8 ± 1.7
323.18 K, 150670 kPa	987.4 ± 1.7
323.18 K, 175680 kPa	1045.2 ± 1.7
323.18 K, 200750 kPa	1098.6 ± 1.8
323.18 K, 250620 kPa	1193.8 ± 1.8
323.18 K, 300400 kPa	1278 ± 1.8
323.18 K, 350810 kPa	1355.4 ± 1.8
323.18 K, 400580 kPa	1424.9 ± 1.9
343.19 K, 4760 kPa	245.5 ± 2.5
343.19 K, 8270 kPa	311.3 ± 2.4
343.19 K, 10440 kPa	341.8 ± 2.2
343.19 K, 50540 kPa	627.2 ± 1.8
343.19 K, 75610 kPa	730.9 ± 1.7
343.19 K, 100650 kPa	818.3 ± 1.7
343.19 K, 125170 kPa	890.4 ± 1.7
343.19 K, 150340 kPa	956.2 ± 1.7
343.19 K, 175160 kPa	1014.7 ± 1.7
343.19 K, 200290 kPa	1069 ± 1.8
343.19 K, 250220 kPa	1165.9 ± 1.8
343.19 K, 300620 kPa	1252 ± 1.8
343.19 K, 350100 kPa	1327.9 ± 1.8
343.19 K, 400370 kPa	1399.8 ± 1.9
363.15 K, 10450 kPa	287 ± 1.9
363.15 K, 25500 kPa	442 ± 1.8
363.15 K, 50520 kPa	592.9 ± 1.7
363.15 K, 75490 kPa	700.6 ± 1.7
363.15 K, 100300 kPa	787.2 ± 1.7
363.15 K, 125230 kPa	861.9 ± 1.7
363.15 K, 150340 kPa	928.6 ± 1.7
363.15 K, 175590 kPa	988.8 ± 1.7
363.15 K, 200320 kPa	1042.8 ± 1.7
363.15 K, 250610 kPa	1141.2 ± 1.8
363.15 K, 300360 kPa	1226.7 ± 1.8
363.15 K, 350690 kPa	1305.3 ± 1.8
363.15 K, 400260 kPa	1376 ± 1.9
383.16 K, 15690 kPa	310.6 ± 1.9
383.16 K, 25690 kPa	407.4 ± 1.8
383.16 K, 50530 kPa	562.3 ± 1.7
383.16 K, 75940 kPa	673.9 ± 1.7
383.16 K, 100500 kPa	761.1 ± 1.7
383.16 K, 125630 kPa	837.2 ± 1.7
383.16 K, 150460 kPa	903.4 ± 1.7
383.16 K, 175770 kPa	964.4 ± 1.7
383.16 K, 200740 kPa	1019.4 ± 1.7
383.16 K, 250260 kPa	1116.8 ± 1.8
383.16 K, 300690 kPa	1204.6 ± 1.8
383.16 K, 350280 kPa	1282.6 ± 1.8
383.16 K, 400510 kPa	1354.3 ± 1.9
403.14 K, 16670 kPa	288.3 ± 1.9
403.14 K, 25610 kPa	375.7 ± 1.8
403.14 K, 50890 kPa	537.5 ± 1.7
403.14 K, 75640 kPa	647.4 ± 1.7
403.14 K, 100060 kPa	737.1 ± 1.7
403.14 K, 125630 kPa	813.6 ± 1.7
403.14 K, 150360 kPa	880.3 ± 1.7
403.14 K, 175620 kPa	941.6 ± 1.7
403.14 K, 200670 kPa	997.2 ± 1.7
403.14 K, 250500 kPa	1096 ± 1.8
403.14 K, 300660 kPa	1183.8 ± 1.8
403.14 K, 350610 kPa	1262.3 ± 1.8
403.14 K, 400280 kPa	1333.6 ± 1.8
423.15 K, 19600 kPa	293.5 ± 1.9
423.15 K, 25100 kPa	345.1 ± 1.9
423.15 K, 50800 kPa	513 ± 1.7
423.15 K, 75400 kPa	623.9 ± 1.7
423.15 K, 100710 kPa	715.4 ± 1.7
423.15 K, 125320 kPa	791.3 ± 1.7
423.15 K, 150160 kPa	858.8 ± 1.7
423.15 K, 175410 kPa	920.3 ± 1.7
423.15 K, 200520 kPa	976.3 ± 1.7
423.15 K, 250420 kPa	1075.9 ± 1.8
423.15 K, 300390 kPa	1163.6 ± 1.8
423.15 K, 350600 kPa	1243 ± 1.8
423.15 K, 400920 kPa	1315.6 ± 1.8
448.15 K, 25130 kPa	318.1 ± 1.7
448.15 K, 50710 kPa	485 ± 1.7
448.15 K, 75240 kPa	596.6 ± 1.7
448.15 K, 100750 kPa	689.4 ± 1.7
448.15 K, 125710 kPa	766.5 ± 1.7
448.15 K, 150770 kPa	834.5 ± 1.7
448.15 K, 175320 kPa	894.5 ± 1.7
448.15 K, 200820 kPa	951.6 ± 1.7
448.15 K, 250910 kPa	1051.8 ± 1.8
448.15 K, 300780 kPa	1139.3 ± 1.8
448.15 K, 350710 kPa	1218.3 ± 1.8
448.15 K, 400820 kPa	1291.1 ± 1.9
473.14 K, 25160 kPa	298.7 ± 1.7
473.14 K, 50460 kPa	462.3 ± 1.7
473.14 K, 75570 kPa	576.7 ± 1.7
473.14 K, 100220 kPa	666.6 ± 1.7
473.14 K, 125570 kPa	745.3 ± 1.7
473.14 K, 150690 kPa	814 ± 1.7
473.14 K, 175720 kPa	875.3 ± 1.7
473.14 K, 200800 kPa	931.7 ± 1.7
473.14 K, 250600 kPa	1031.5 ± 1.8
473.14 K, 300640 kPa	1119.7 ± 1.8
473.14 K, 350560 kPa	1199 ± 1.8
473.14 K, 400750 kPa	1272 ± 1.8
